Assay results: US20040157818A1, “Cxcr4-antagonistic drugs composed of nitrogen-containing compound” (priority 2001, published 2004)

Biological target: T1, CXCR4 (Homo sapiens, UniProt P61073)
T1 construct: endogenous in cells; host or cells: MT-4 cells
Experiment: CXCR4-binding inhibition activity (125I-SDF-1α binding to MT-4 cells)
Conditions: 0.1 μM test material, ligand 125I-SDF-1α, 2 hours under ice cold condition
Protocol: CXCR4-Binding Inhibition Activity
MT-4 cells (5×10^6/0.2 ml/well) were cultured on a 24-well microtiter plate. After the cells were incubated for 24 hours at 37° C. in a carbon dioxide gas incubator, a culture mediumwas replaced with a buffer solution (RPMI-1640 containing 0.1% BSA). Together with a ligand ^125I-SDF-1α (specific activity: 2,2000 Ci/mmol; DAIICHI PURE CHEMICALS CO. ,LTD. (Tokyo)), various concentrations of test materials were subjected to a binding reaction for 2 hours under ice cold condition.

T1 sequence (P61073 whole entry): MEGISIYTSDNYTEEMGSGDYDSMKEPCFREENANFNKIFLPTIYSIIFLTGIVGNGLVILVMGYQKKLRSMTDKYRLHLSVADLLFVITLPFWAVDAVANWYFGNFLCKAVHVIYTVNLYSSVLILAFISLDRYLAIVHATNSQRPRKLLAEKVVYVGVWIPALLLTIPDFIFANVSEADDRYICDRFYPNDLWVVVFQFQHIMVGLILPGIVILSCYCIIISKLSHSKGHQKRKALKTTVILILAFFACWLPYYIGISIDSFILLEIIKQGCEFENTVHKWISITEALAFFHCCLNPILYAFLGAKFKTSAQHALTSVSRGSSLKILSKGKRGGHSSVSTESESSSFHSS

| inhibition at 0.1 µM (read-out: inhibition rate (binding-inhibition % at 0.1 μM)) | inhibition rate (binding-inhibition % at 0.1 μM) | Compound |
| --- | --- | --- |
| 10% |  | c1cc(CN2CCCNCCNCCCNCC2)ccc1CN1CCCNCCNCCCNCC1 [AMD3100, reference compound] |
|  | 26.4% | Cn1cccc1CNCCC[C@H](NC(=O)c1ccc(CNCc2ccccn2)cc1)C(=O)NCc1cccc2ccccc12 [Compound No. 5, (S)-2-(4-(N-2-picolylaminomethyl)benzoylamino)-5-((1-methylpyrrol-2-ylmethyl)amino)valerate 1-naphthalenemethylamide] |
|  | 75.3% | O=C(N[C@@H](CCCNC1CCCc2cccnc21)C(=O)NCc1cccc2ccccc12)c1ccc(CNCc2ncc[nH]2)s1 (some centres unmarked) [Compound No. 16] |
|  | 73.8% | O=C(N[C@@H](CCCNC1CCCc2cccnc21)C(=O)NCCc1c[nH]c2ccccc12)c1ccc(CNCc2ncc[nH]2)c2ccccc12 (stereo partly drawn) [Compound No. 19, (2S)-2-(4-((N-imidazol-2-ylmethyl)aminomethyl)naphthoylamino)-5-(5,6,7,8-tetrahydroquinolin-8-ylamino)2-(3-indolyl)ethylamide valerate] |
|  | 12.8% | O=C(N[C@@H](CCCNCc1ncc[nH]1)C(=O)NCc1cccc2ccccc12)c1ccc(CNCc2ncc[nH]2)cc1 [Compound No. 21, (S)-2-(4-((imidazol-2-ylmethyl)aminomethyl)benzoylamino)-5-((imidazol-2-ylmethyl)amino)valerate 1-naphthalenemethylamide] |
|  | 78.6% | O=C(N[C@@H](CCCNC1CCCc2cccnc21)C(=O)NCc1cccc2ccccc12)c1ccc(CNC2CCCc3cccnc32)c2ccccc12 (stereo partly drawn) [Compound No. 26, (2S)-2-(4-(5,6,7,8-tetrahydroquinolin-8-ylaminomethyl)naphthoyl)amino-5-(5,6,7,8-tetrahydroquinolin-8-ylamino)valerate 1-naphthalenemethylamide] |
|  | 82.1% | O=C(N[C@@H](CCCNCc1ccccn1)C(=O)NCc1cccc2ccccc12)c1ccc(CNCc2ccccn2)c2ccccc12 [Compound No. 27, (S)-2-(4-(N-2-picolylaminomethyl)naphthoylamino)-5-(2-picolylamino)valerate 1-naphthalenemethylamide] |
|  | 78.1% | O=C(N[C@@H](CCCNCc1ncc[nH]1)C(=O)NCc1cccc2ccccc12)c1ccc(CNCc2ncc[nH]2)c2ccccc12 [Compound No. 28, (S)-2-(4-((imidazol-2-ylmethyl)aminomethyl)naphthoylamino)-5-((imidazol-2-ylmethyl)amino)valerate 1-naphthalenemethylamide] |
|  | 56.8% | Cn1ccnc1CNCCC[C@H](NC(=O)c1ccc(CNCc2nccn2C)c2ccccc12)C(=O)NCc1cccc2ccccc12 [Compound No. 29, (S)-2-(4-((1-methylimidazol-2-ylmethyl)aminomethyl)naphthoylamino)-5-((1-methylimidazol-2-ylmethyl)amino)valerate 1-naphthalenemethylamide] |
|  | 60.9% | Cn1cccc1CNCCC[C@H](NC(=O)c1ccc(CNCc2nccn2C)cc1)C(=O)NCc1cccc2ccccc12 [Compound No. 30, (S)-2-(4-((1-methylimidazol-2-ylmethyl)aminomethyl)benzoylamino)-5-((1-methylpyrrol-2-ylmethyl)amino)valerate 1-naphthalenemethylamide] |
|  | 90.0% | O=C(N[C@@H](CCCNC1CCCc2cccnc21)C(=O)NCc1cccc2ccccc12)c1ccc(CNCc2ccccn2)c2ccccc12 (stereo partly drawn) [Compound No. 38, (2S)-2-(4-(N-2-picolylaminomethyl)naphthoylamino)-5-(5,6,7,8-tetrahydroquinolin-8-ylamino)valerate 1-naphthalenemethylamide] |
|  | 85.3% | O=C(N[C@@H](CCCNCc1ccccn1)C(=O)NCc1cccc2ccccc12)c1ccc(CNCc2ncc[nH]2)c2ccccc12 [Compound No. 40, (S)-2-(4-((N-imidazol-2-ylmethyl)aminomethyl)naphthoylamino)-5-(2-picolylamino)valerate 1-naphthalenemethylamide] |
|  | 43.6% | NC(N)=NCCC[C@H](NC(=O)c1ccc(CNCc2ccccn2)cc1)C(=O)NCc1cccc2ccccc12 [Compound No. 43, N^α-(4-(N-2-picolylaminomethyl)benzoyl)-L-arginine 1-naphthalenemethylamide] |
|  | 88.1% | N=C(N)NCCC[C@H](NC(=O)c1ccc(CNCc2ccccn2)c2ccccc12)C(=O)NCc1cccc2ccccc12 [Compound No. 44, N^α-(4-(N-2-picolylaminomethyl)naphthoyl)-L-arginine 1-naphthalenemethylamide] |
|  | 95.8% | N=C(N)NCCC[C@H](NC(=O)c1ccc(CNCc2ncc[nH]2)c2ccccc12)C(=O)NCc1cccc2ccccc12 [Compound No. 45, N^α-(4-((N-imidazol-2-ylmethyl)aminomethyl)naphthoyl)-L-arginine 1-naphthalenemethylamide] |
|  | 71.5% | N=C(N)NCCC[C@H](NC(=O)c1ccc(CNCc2ncc[nH]2)cc1)C(=O)NCc1cccc2ccccc12 [Compound No. 53, N^α-(4-((imidazol-2-ylmethyl)aminomethyl)benzoyl)-L-arginine 1-naphthalenemethylamide] |
|  | 94.6% | O=C(N[C@@H](CCCN[C@@H]1CCCc2cccnc21)C(=O)NCc1cccc2ccccc12)c1ccc(CNCc2ccccn2)c2ccccc12 [Compound No. 55, (2S)-2-(4-(N-2-picolylaminomethyl)naphthoylamino)-5-((8R)-5,6,7,8-tetrahydroquinolin-8-ylamino)valerate 1-naphthalenemethylamide] |
|  | 69.9% | C[C@H](NC(=O)[C@H](CCCNCc1ccccn1)NC(=O)c1ccc(CNCc2ncc[nH]2)c2ccccc12)c1cccc2ccccc12 [Compound No. 56] |
|  | 52.0% | C[C@@H](NC(=O)[C@H](CCCNCc1ccccn1)NC(=O)c1ccc(CNCc2ncc[nH]2)c2ccccc12)c1cccc2ccccc12 [Compound No. 58] |
|  | 86.0% | C[C@@H](NC(=O)[C@H](CCCNC1CCCc2cccnc21)NC(=O)c1ccc(CNCc2ncc[nH]2)c2ccccc12)c1cccc2ccccc12 (some centres unmarked) [Compound No. 59] |
|  | 16.8% | O=C(N[C@@H](CCCNCc1ccccn1)C(=O)NCc1cccc2ccccc12)c1ccc(CNCc2ccccn2)cc1 [Compound No. 60, (S)-2-(4-(N-2-picolylaminomethyl)benzoylamino)-5-(N-2-picolylamino)valerate 1-naphthalenemethylamide] |
|  | 32.9% | O=C(N[C@@H](CCNCc1ccccn1)C(=O)NCc1cccc2ccccc12)c1ccc(CNCc2ccccn2)cc1 [Compound No. 61, (S)-2-(4-(N-2-picolylamino)methylbenzoylamino)-4-(N-2-picolylamino)lactate 1-naphthalenemethylamide] |
|  | 51.6% | O=C(N[C@@H](CCCNC1CCCc2cccnc21)C(=O)NCc1cccc2ccccc12)c1ccc(CNC2CCCc3cccnc32)cc1 (stereo partly drawn) [Compound No. 64, (2S)-2-(4-((5,6,7,8-tetrahydroquinolin-8-yl)aminomethyl)benzoylamino)-5-((5,6,7,8-tetrahydroquinolin-8-yl)amino)valerate 1-naphthalenemethylamide] |
|  | 78.0% | C[C@H](NC(=O)[C@H](CCCNC1CCCc2cccnc21)NC(=O)c1ccc(CNCc2ccccn2)nc1)c1cccc2ccccc12 (stereo partly drawn) [Compound No. 83, (2S)-2-(2-(N-2-picolylaminomethyl)pyridin-5-ylcarbonyl)amino-5-(5,6,7,8-tetrahydroquinolin-8-yl)amino valerate(1′S)-1′-(1-naphthyl)ethylamide] |
|  | 90.7% | C[C@H](NC(=O)[C@H](CCCNC1CCCc2cccnc21)NC(=O)c1ccc(CNCc2ccccn2)c2ccccc12)c1cccc2ccccc12 (stereo partly drawn) [Compound No. 85, (2S)-2-(4-(N-2-picolylaminomethyl)naphthoyl)amino-5-(5,6,7,8-tetrahydroquinolin-8-yl)amino valerate(1′S)-1′-(1-naphthyl)-ethylamide] |
|  | 57.9% | C[C@H](NC(=O)[C@H](CCCNCc1nccn1C)NC(=O)c1ccc(CNCc2nccn2C)c2ccccc12)c1cccc2ccccc12 [Compound No. 87] |
|  | 94.0% | C[C@H](NC(=O)[C@H](CCCNC1CCCc2cccnc21)NC(=O)c1ccc(CNCc2ccccn2)cc1)c1cccc2ccccc12 (stereo partly drawn) [Compound No. 91, (2S)-2-(4-(N-2-picolylaminomethyl)benzoyl)amino-5-(5,6,7,8-tetrahydroquinolin-8-yl)amino valerate(1′S)-1′-(1-naphthyl)ethylamide] |
|  | 100.0% | C[C@H](NC(=O)[C@H](CCCNC(=N)N)NC(=O)c1ccc(CNCc2ncc[nH]2)cc1)c1cccc2ccccc12 [Compound No. 95] |
|  | 40.6% | O=C(N[C@@H](CCCNC1CCCc2cccnc21)C(=O)NCc1cccc2ccccc12)c1ccc(CNc2ccccn2)c2ccccc12 (stereo partly drawn) [Compound No. 104, (2S)-2-(4-(2-pyridyl)aminomethylnaphthalene-1-carbonyl)anmino-5-(5,6,7,8-tetrahydroquinolin-8-yl)amino valerate 1-naphthylmethylamide] |
